Laboratory results reported in publication PMC10648852, “Molecular drivers of resistance to sulbactam-durlobactam in contemporary clinical isolates of Acinetobacter baumannii” (Antimicrobial Agents and Chemotherapy, 2023).
Like-named read-outs stand apart in the source and are kept apart here.

Tests used:
[1] = system: isogenic A. baylyi ADP1 panel encoding wildtype or mutant PBP3; assay: Broth microdilution MIC, isogenic A. baylyi panel (PBP3 variants with or without overexpressed β-lactamases); type: cell-based; details: for MIC: Acinetobacter baylyi, A. baylyi
Description: To understand the effect of PBP3 variants on whole cell activity in the absence of other resistance determinants, the MIC values of sulbactam, SUL-DUR and comparator β-lactams were measured against an isogenic A. baylyi panel engineered to contain individual strains in which the endogenous PBP3 was replaced with the variant of interest.
Each of the A. baylyi panel members were then transformed with plasmids that constitutively expressed five distinct, representative β-lactamases commonly found in Acinetobacter clinical isolates (TEM-1, ADC-30, OXA-23, OXA-24 or OXA-66) and evaluated for changes in antibiotic susceptibility. […] . […] .
The isogenic A. baylyi panel used for chromosomal expression of various PBP3 mutants with or without constitutive expression of various β-lactamases were constructed as part of this study. The A. baylyi ADP1 PBP3 ORF was cloned into pUC19 with a gentamicin cassette inserted downstream of the PBP3 ORF for selection purposes. Additionally, 500 bp of flanking homology to the ADP1 genome were inserted upstream of the PBP3 ORF and downstream of the gentamicin cassette. […] Linear DNA consisting of the 500 bp upstream-PBP3-Gent-500 bp downstream fragment was cloned out of the pUC19 plasmid by PCR and used for transformation of the ADP1 strain. The strain was grown at 30°C overnight in LB medium shaking at 250 rpm. Seventy microliters of the overnight ADP1 culture were combined with 1 mL of fresh LB and 200 ng of linear DNA fragment and incubated for 5 h at 30°C and shaking at 200 rpm. Various dilutions of each culture were plated on LB agar supplemented with 10 µg/mL of gentamicin to select for transformants with successful chromosomal integrations. Integrants were verified by Sanger sequencing using purified genomic DNA.
For the constitutive expression of various β-lactamases, ORFs of bla TEM-1, bla ADC-30, bla OXA-23, bla OXA-24, and bla OXA-66 were cloned by PCR from various clinical strains that encode these genes and inserted into the pWH1266 plasmid modified to encode a kanamycin cassette for selection. These plasmids along with an empty vector were used to transform each of the A. baylyi ADP1 strains engineered above that encode wild-type PBP3 or variants. Transformations were carried out as done above with selection on LB agar supplemented with 20 µg/mL of kanamycin.
(§1) Antimicrobial susceptibility testing was performed using broth microdilution following standardized methods established by the Clinical Laboratory Standards Institute (CLSI) ([35], [36]). Quality control testing was performed as specified by CLSI using A. baumannii NCTC 13304 ([35]). MIC values were interpreted using CLSI breakpoints for all antimicrobial agents except those for which CLSI breakpoints are not available ([35]). SUL-DUR was tested as twofold dilutions of sulbactam in combination with a fixed concentration of 4 µg/mL durlobactam ([35]).

A. baumannii PBP3 S390T [2] = system: A. baumannii PBP3 S390T; parameters: method as in McLeod et al. (2018); details: average ± SD, ref McLeod et al. (2018); cited from earlier work
A. baumannii PBP3 N377Y = assay: Acylation rate constant (kinact/Ki), fluorescence anisotropy competition with BOCILLIN
A. baumannii PBP3 H370Y = assay: as above
A. baumannii PBP3 S395F [3] = assay: as above; details: variant data from McLeod et al. (2018)
A. baumannii PBP3 S390T [4] = assay: as above; details: variant data from McLeod et al. (2018)
A. baumannii PBP3 S395F [5] = system: A. baumannii PBP3 S395F; parameters: method as in McLeod et al. (2018); details: average ± SD, ref McLeod et al. (2018); cited from earlier work
A. baumannii PBP3 N392T = assay: Acylation rate constant (kinact/Ki), fluorescence anisotropy competition with BOCILLIN
A. baumannii PBP3 Q488K = assay: as above
[6] = system: A. baumannii wild-type PBP3; assay: as above; details: Wildtype PBP3
[7] = system: A. baumannii KAB1544 and efflux overexpression mutants; assay: Broth microdilution MIC, isogenic A. baumannii overexpression efflux mutants; type: cell-based; details: for MIC: Acinetobacter baumannii
Description: (§2) To further assess the role of efflux in SUL-DUR activity against Acinetobacter spp., two panels of A. baumannii isogenic strains were tested. The first consisted of 7 members of an A. baumannii transposon library ([28]) with single gene disruptions in the adeABC, adeIJK, or adeT loci as compared to the parent strain, AB5075. […] This panel of strains consists of four different point mutants in AdeR and five different point mutants in AdeS, which result in the upregulation of AdeABC expression. In addition, this panel contains chromosomal deletions of adeL and adeN, which result in overexpression of AdeFGH and AdeIJK, respectively ([29]).
In contrast, sulbactam, SUL-DUR, and imipenem MIC values were unaffected by these mutants (Table 4).
(§3) The AB5075 parent strain as well as transposon interrupted AdeABC, AdeIJK, and AdeT were purchased from the Manoil laboratory at the University of Washington from their arrayed transposon mutant collection ([28]). The KAB1544 parent as well as efflux pump regulator mutants and deletions were constructed as previously described ([29]).
as §1

[8] = system: A. baumannii AB5075 and transposon mutants in efflux genes; assay: Broth microdilution MIC, isogenic A. baumannii transposon mutants in efflux genes; type: cell-based; details: for In vitro activity (MIC): tested in duplicate
Description: as §2
The parent and each isogenic mutant strain in both panels was measured for susceptibility to sulbactam, durlobactam, SUL-DUR, imipenem, and gentamicin. […].
as §3, §1

[9] = system: ARC7093 (AdeJ [G288S]) versus NCTC 13304; assay: Ethidium bromide uptake (accumulation) assay; type: cell-based, A. baumannii; details: over 20 min; 8 µM EtBr; P < 0.0001
From the text: This AdeJ variant has been previously described in the context of carbapenem resistance due to the overexpression of the AdeJ pump, although the association was only made based on genotype, not phenotype ([31]). The efflux capacity of ARC7093 was, therefore, compared to NCTC 13304, a SUL-DUR-susceptible clinical isolate with wild-type AdeIJK, in an ethidium bromide accumulation assay. […] Therefore, the AdeJ (G288S) variant may play a role in susceptibility to SUL-DUR in Acinetobacter spp.
NCTC 13304 and ARC7093 were cultured overnight on Tryptic Soy Blood Agar plates. Single colonies were used to inoculate 2 mL of Mueller-Hinton Cation-adjusted Broth (MHBII) and grown overnight at 35°C with shaking. On the day of the experiment, the overnight culture was diluted 100-fold into a flask containing 20 mL of MHBII and grown under the same conditions to OD600 ~0.2. Two-mL aliquots of this logarithmic phase culture were centrifuged. The pellets were gently re-suspended in 2-mL of sterile phosphate-buffered saline (pH 7.0) containing 8 µM EtBr. The cells were transferred to a black-wall, clear-bottom 96-well microplate, and EtBr fluorescence (excitation—530 nm, emission—590 nm) was measured over a period of 20 min in a SpectraMax M5e plate reader (Molecular Devices). Statistical significance for the accumulation of ethidium bromide was determined using an unpaired t-test.

[10] = AdeR A91V, AdeABC overexpressed, read-out: MIC
[11] = AdeR D20N, AdeABC overexpressed, read-out: MIC
[12] = AdeR E219A, AdeABC overexpressed, read-out: MIC
[13] = AdeR P116L, AdeABC overexpressed, read-out: MIC
[14] = AdeS A94V, AdeABC overexpressed, read-out: MIC
[15] = AdeS G30D, AdeABC overexpressed, read-out: MIC
[16] = AdeS G103D, AdeABC overexpressed, read-out: MIC
[17] = AdeS R152K, AdeABC overexpressed, read-out: MIC
[18] = AdeS T153M, AdeABC overexpressed, read-out: MIC
[19] = Parent (KAB1544), no efflux pump overexpressed, read-out: MIC

SMILES: C[C@H]1[C@H](NC(=O)/C(=N\OC(C)(C)C(=O)O)c2csc(N)n2)C(=O)N1S(=O)(=O)O [aztreonam]
- MIC ([1]; PBP3 H370Y, overexpressed ADC-30): 32 µg/mL
- MIC ([1]; PBP3 H370Y, overexpressed OXA-23): 64 µg/mL
- MIC ([1]; PBP3 H370Y, overexpressed OXA-24): 64 µg/mL
- MIC ([1]; PBP3 H370Y, overexpressed OXA-66): 64 µg/mL
- MIC ([1]; PBP3 H370Y, overexpressed TEM-1): 64 µg/mL
- MIC ([1]; PBP3 H370Y, β-lactamase None (empty vector)): 64 µg/mL
- MIC ([1]; PBP3 Wildtype, overexpressed ADC-30, read-out: MIC): 32 µg/mL
- MIC ([1]; PBP3 Wildtype, overexpressed OXA-23, read-out: MIC): 64 µg/mL
- MIC ([1]; PBP3 Wildtype, overexpressed OXA-24, read-out: MIC): 32 µg/mL
- MIC ([1]; PBP3 Wildtype, overexpressed OXA-66, read-out: MIC): 32 µg/mL
- MIC ([1]; PBP3 Wildtype, overexpressed TEM-1, read-out: MIC): 32 µg/mL
- MIC ([1]; PBP3 Wildtype, β-lactamase None (empty vector), read-out: MIC): 32 µg/mL
- changes in MIC values in the presence of β-lactamase ([1]; wildtype PBP3 strain, five overexpressed β-lactamases): ≤ 2 fold
- k inact/K i (A. baumannii PBP3 S390T [2]): 900 ± 300 ([3]) M^-1s^-1
- % WT (A. baumannii PBP3 N377Y): 72.9%
- k inact/K i (A. baumannii PBP3 N377Y; average ± SD): 510 ± 60 ([2]) M^-1s^-1
- % WT (A. baumannii PBP3 H370Y): 61.4%
- k inact/K i (A. baumannii PBP3 H370Y; average ± SD): 430 ± 30 ([2]) M^-1s^-1
- % WT (A. baumannii PBP3 S395F [3]): 15.7%
- % WT (A. baumannii PBP3 S390T [4]): 128.6%
- k inact/K i (A. baumannii PBP3 S395F [5]): 110 ± 20 ([3]) M^-1s^-1
- % WT (A. baumannii PBP3 N392T): 22.9%
- k inact/K i (A. baumannii PBP3 N392T; average ± SD): 160 ± 20 ([2]) M^-1s^-1
- % WT (A. baumannii PBP3 Q488K): 65.7%
- k inact/K i (A. baumannii PBP3 Q488K; average ± SD): 460 ± 50 ([2]) M^-1s^-1
- % WT [6]: 100%
- k inact/K i ([6]; average ± SD): 700 ± 100 ([10]) M^-1s^-1

SMILES: CC1=C[C@@H]2CN(C(=O)N2OS(=O)(=O)O)[C@@H]1C(N)=O [durlobactam]
- MIC [7, 10]: 32 µg/mL
- MIC [7, 11]: 64 µg/mL
- MIC [7, 12]: 128 µg/mL
- MIC [7, 13]: 64 µg/mL
- MIC [7, 14]: 64 µg/mL
- MIC [7, 15]: 64 µg/mL
- MIC [7, 16]: 64 µg/mL
- MIC [7, 17]: 64 µg/mL
- MIC [7, 18]: 32 µg/mL
- MIC [7, 19]: 128 µg/mL
- MIC ([7]; ΔadeL, AdeFGH overexpressed): 64 µg/mL
- MIC ([7]; ΔadeN, AdeIJK overexpressed): 128 µg/mL
- In vitro activity (MIC) ([8]; Parent (AB5075)): 128 µg/mL
- In vitro activity (MIC) ([8]; adeA::tn in AB5075): 64 µg/mL
- In vitro activity (MIC) ([8]; adeB::tn in AB5075): 256 µg/mL
- In vitro activity (MIC) ([8]; adeC::tn in AB5075): 256 µg/mL
- In vitro activity (MIC) ([8]; adeI::tn in AB5075): 64 µg/mL
- In vitro activity (MIC) ([8]; adeJ::tn in AB5075): 32 µg/mL
- changes in MIC values as compared to the parent strain ([8]; adeK::Tn mutant, AB5075): 4 fold
- In vitro activity (MIC) ([8]; adeK::tn in AB5075): 32 µg/mL
- In vitro activity (MIC) ([8]; adeT::tn in AB5075): 128 µg/mL
- changes in MIC values as compared to the parent strain ([8]; {}): 4 fold

SMILES: CC[n+]1c(-c2ccccc2)c2cc(N)ccc2c2ccc(N)cc21 [ethidium bromide]
- accumulation of ethidium bromide in ARC7093 versus NCTC 13304 [9]: significantly lower

SMILES: CNC(C)C1CCC(N)C(OC2C(N)CC(N)C(OC3OCC(C)(O)C(NC)C3O)C2O)O1 (stereo not shown) [gentamicin]
- MIC [7, 10]: 32 µg/mL
- MIC [7, 11]: 16 µg/mL
- MIC [7, 12]: 2 µg/mL
- MIC [7, 13]: 16 µg/mL
- MIC [7, 14]: 16 µg/mL
- MIC [7, 15]: 32 µg/mL
- MIC [7, 16]: 2 µg/mL
- MIC [7, 17]: 16 µg/mL
- MIC [7, 18]: 32 µg/mL
- MIC [7, 19]: 2 µg/mL
- MIC ([7]; ΔadeL, AdeFGH overexpressed): 2 µg/mL
- MIC ([7]; ΔadeN, AdeIJK overexpressed): 2 µg/mL
- change in MIC values relative to the parent strain ([7]; {}): 8- to 16 fold
- MIC shift as compared to the parent strain ([8]; AdeA disruption, AB5075): > 64 fold
- MIC shift as compared to the parent strain ([8]; AdeB disruption, AB5075): > 8 fold
- In vitro activity (MIC) ([8]; Parent (AB5075)): > 64 µg/mL
- In vitro activity (MIC) ([8]; adeA::tn in AB5075): 1 µg/mL
- In vitro activity (MIC) ([8]; adeB::tn in AB5075): 8 µg/mL
- In vitro activity (MIC) ([8]; adeC::tn in AB5075): > 64 µg/mL
- In vitro activity (MIC) ([8]; adeI::tn in AB5075): > 64 µg/mL
- In vitro activity (MIC) ([8]; adeJ::tn in AB5075): > 64 µg/mL
- In vitro activity (MIC) ([8]; adeK::tn in AB5075): > 64 µg/mL
- In vitro activity (MIC) ([8]; adeT::tn in AB5075): > 64 µg/mL
